{"source": "paper PMC12704298", "about": "“Divergent acetyl-CoA binding modes mediate allosteric inhibition of bacterial hybrid-type malic enzymes” (The Journal of Biological Chemistry, 2025)", "molecules": {"B1": {"name": "malic enzyme B (MaeB) from Escherichia coli (enzyme, UniProt P76558 1-759, looked up)", "chain": "MDDQLKQSALDFHEFPVPGKIQVSPTKPLATQRDLALAYSPGVAAPCLEIEKDPLKAYKYTARGNLVAVISNGTAVLGLGNIGALAGKPVMEGKGVLFKKFAGIDVFDIEVDELDPDKFIEVVAALEPTFGGINLEDIKAPECFYIEQKLRERMNIPVFHDDQHGTAIISTAAILNGLRVVEKNISDVRMVVSGAGAAAIACMNLLVALGLQKHNIVVCDSKGVIYQGREPNMAETKAAYAVVDDGKRTLDDVIEGADIFLGCSGPKVLTQEMVKKMARAPMILALANPEPEILPPLAKEVRPDAIICTGRSDYPNQVNNVLCFPFIFRGALDVGATAINEEMKLAAVRAIAELAHAEQSEVVASAYGDQDLSFGPEYIIPKPFDPRLIVKIAPAVAKAAMESGVATRPIADFDVYIDKLTEFVYKTNLFMKPIFSQARKAPKRVVLPEGEEARVLHATQELVTLGLAKPILIGRPNVIEMRIQKLGLQIKAGVDFEIVNNESDPRFKEYWTEYFQIMKRRGVTQEQAQRALISNPTVIGAIMVQRGEADAMICGTVGDYHEHFSVVKNVFGYRDGVHTAGAMNALLLPSGNTFIADTYVNDEPDAEELAEITLMAAETVRRFGIEPRVALLSHSNFGSSDCPSSSKMRQALELVRERAPELMIDGEMHGDAALVEAIRNDRMPDSSLKGSANILVMPNMEAARISYNLLRVSSSEGVTVGPVLMGVAKPVHVLTPIASVRRIVNMVALAVVEAQTQPL", "notes": "MaeB of E. coli, gene amplified from genomic DNA of strain SHuffle T7; Cloned in pET-28a(+); Homohexamer in the crystal and in cryo-EM; also called EcMaeB; EcMaeBapo; source: E. coli BL21(DE3), purified (HisTrap TALON, size-exclusion chromatography)"}, "B2": {"name": "BbMaeB (Bdellovibrio bacteriovorus) (protein)", "chain": "METKTETKTGTTNFDQEALLYHQQGKPGKIEVISSKPCATEKDLSLAYSPGVAAPCKAIAKDPAKVYDYTAKGNLVAVISNGTAVLGLGNIGPAAGKPVMEGKGILFKQFAGIDVFDIEVAATDVDTFCNAVRVLEPTFGGINLEDIKAPECFEIEERLKKEMNIPVFHDDQHGTAIVSGAALLNACSITNRKMEDMRIVVNGAGASANSCAKIFIALGARRENIIMCDSQGVIYKGRTAGMNKYKEYFASETEARTLTEALRGADVFVGLSVAGALTPEMLKDMAKDPIIFAMANPEPEITPDKARAARPDAIIATGRSDYPNQVNNVLGFPSIFRGALDTRSTQINEEMKLAAVHALAKLARMDVPDKVSATYGGKSFKFGRDYLIPKPFDTRVLLWVAPEVAKAAMKSGVATRAIEDWDQYRESLEAQQGPSKVFIRSAINRVHQNSEANGGELPRIVFPEGTSTKVLKALATLVEERICQPILLGYPERVKEKIKALDIPLLNDVQIVHPSSHPKYFSFVEKLYSLRQRKGINLGEAERLMADPNYFAAMMVNMGEADGMVSGSSINYADAVRPILQTIGTYKEGIPAGLNFVLLEDKFLVLADTTVNFNPSAEQCAQIALQAAKIVEYFGIEPRVAMLSYSNFSGAEGTPRKMKKAAEIARTLRPDLMIEGDMQADTAVNPEIMERLFPFSGLKGGANVLVFPNLESSNIAYKLIQQIGKAEVIGPFLTGVRRSANVLQRTTTVDGIVNSVVFTALEAQFIKDALKARGKK"}}, "key": {"[1]": {"test_system": "DME", "set-up": "method as in PMID 10407149", "details": "cited from earlier work"}, "[2]": {"target": "T1, EcMaeB (Escherichia coli, UniProt P76558)", "T1 construct": "His-tag (C); made in house; host or cells: E. coli BL21(DE3)", "T1 sequence (P76558 1-759)": "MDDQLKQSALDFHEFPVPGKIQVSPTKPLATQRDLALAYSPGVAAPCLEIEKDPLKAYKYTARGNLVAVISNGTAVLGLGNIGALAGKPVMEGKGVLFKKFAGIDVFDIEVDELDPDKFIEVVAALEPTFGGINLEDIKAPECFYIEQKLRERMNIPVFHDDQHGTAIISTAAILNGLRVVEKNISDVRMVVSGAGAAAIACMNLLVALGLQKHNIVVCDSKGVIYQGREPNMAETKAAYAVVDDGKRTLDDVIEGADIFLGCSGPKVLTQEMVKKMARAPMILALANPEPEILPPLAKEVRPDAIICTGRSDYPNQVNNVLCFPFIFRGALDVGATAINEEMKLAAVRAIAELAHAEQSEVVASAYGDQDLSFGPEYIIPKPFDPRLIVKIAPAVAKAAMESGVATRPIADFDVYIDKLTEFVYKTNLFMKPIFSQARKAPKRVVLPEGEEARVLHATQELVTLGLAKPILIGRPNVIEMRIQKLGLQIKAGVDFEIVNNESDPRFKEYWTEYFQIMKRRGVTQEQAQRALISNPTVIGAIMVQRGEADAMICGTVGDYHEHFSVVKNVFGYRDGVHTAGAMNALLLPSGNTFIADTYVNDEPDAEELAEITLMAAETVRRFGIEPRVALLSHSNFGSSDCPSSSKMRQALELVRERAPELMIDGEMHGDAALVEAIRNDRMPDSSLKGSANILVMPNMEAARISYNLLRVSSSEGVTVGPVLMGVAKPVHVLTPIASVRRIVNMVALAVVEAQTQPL", "test": "Enzyme kinetic parameters (Michaelis-Menten, substrate inhibition, empirical Hill plots)", "format": "biochemical", "experimental": "(§1) Spectrophotometric assays were used to monitor the oxidative decarboxylation of L-malate to pyruvate using a SpectraMax M2, UV-Visible spectrophotometer (Molecular Devices) operated by SoftMax Pro Software with kinetic mode. All assays recorded the Δabsorbance at 340 nm (NADPH) at 30 °C. Assays were initiated by the addition of enzyme to the otherwise complete reaction mixture. […] Acetyl-CoA was tested at 5 μM.\n(§2) For this substrate inhibition model, x should be fixed. […] The plots shown in Fig. S1F were fitted to the empirical Hill equation: v0=Vmax·[malate]^h/(K0.5h+[malate]^h) where K0.5 indicates the substrate concentration for half-saturation. When h is equal to 1, K0.5 matches Michaelis constant Km."}, "[3]": {"target": "T2, BbMaeB (Bdellovibrio bacteriovorus, UniProt A0A1Z3N8R4)", "T2 sequence (A0A1Z3N8R4 1-776)": "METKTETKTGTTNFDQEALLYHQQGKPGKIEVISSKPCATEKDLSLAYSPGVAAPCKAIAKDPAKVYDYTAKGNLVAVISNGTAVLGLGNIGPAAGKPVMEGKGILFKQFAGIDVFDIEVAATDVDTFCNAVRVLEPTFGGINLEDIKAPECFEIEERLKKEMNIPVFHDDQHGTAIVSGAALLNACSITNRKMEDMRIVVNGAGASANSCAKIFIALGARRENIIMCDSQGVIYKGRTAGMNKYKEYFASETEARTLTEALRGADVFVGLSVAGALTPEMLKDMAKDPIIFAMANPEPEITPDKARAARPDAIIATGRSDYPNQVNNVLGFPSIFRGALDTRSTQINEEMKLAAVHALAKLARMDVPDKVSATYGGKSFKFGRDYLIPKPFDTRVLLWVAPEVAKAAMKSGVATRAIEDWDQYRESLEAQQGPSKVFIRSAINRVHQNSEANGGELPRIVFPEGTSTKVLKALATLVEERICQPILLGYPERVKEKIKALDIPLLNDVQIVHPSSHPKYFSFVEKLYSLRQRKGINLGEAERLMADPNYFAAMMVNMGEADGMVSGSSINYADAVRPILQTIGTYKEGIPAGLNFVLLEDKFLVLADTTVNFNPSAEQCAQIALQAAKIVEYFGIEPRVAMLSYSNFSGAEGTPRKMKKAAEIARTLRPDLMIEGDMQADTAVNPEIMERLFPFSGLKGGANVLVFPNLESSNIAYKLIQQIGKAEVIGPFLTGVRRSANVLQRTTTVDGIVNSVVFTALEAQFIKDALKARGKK", "test": "Enzyme kinetic parameters (Michaelis-Menten, substrate inhibition, empirical Hill plots)", "format": "biochemical, Bdellovibrio bacteriovorus strain SSB218315", "experimental": "as §1, §2"}, "[4]": {"target": "T1, EcMaeB", "set-up": "method as in PMID 17557829", "details": "previous study; cited from earlier work"}, "[5]": {"substrate": "O=C(O)C[C@H](O)C(=O)O", "test": "Enzyme kinetic parameters (Michaelis-Menten, substrate inhibition, empirical Hill plots)", "format": "biochemical, Escherichia coli", "details": "other: EcMaeB; substrate inhibition plot, NADP+ fixed 0.5 mM, without acetyl-CoA; pH 7.5; 30.0 °C"}, "[6]": {"target": "the molecule itself", "test": "crystal structure; EcMaeB without cofactors and acetyl-CoA; 20 mg/ml protein, 0.2 M potassium chloride pH 7.0, 20% v/v PEG 3350, 20 °C; homohexamer"}, "[7]": {"substrate": "O=C(O)C[C@H](O)C(=O)O", "test": "Enzyme kinetic parameters (Michaelis-Menten, substrate inhibition, empirical Hill plots)", "format": "biochemical, Bdellovibrio bacteriovorus strain SSB218315", "details": "other: BbMaeB; substrate inhibition plot, NADP+ fixed 0.5 mM, without acetyl-CoA; pH 7.5; 30.0 °C"}}}
{"molecule": "CCC(=O)SCCNC(=O)CCNC(=O)[C@H](O)C(C)(C)COP(=O)(O)OP(=O)(O)OC[C@H]1O[C@@H](n2cnc3c(N)ncnc32)[C@H](O)[C@@H]1OP(=O)(O)O", "note": "[propionyl-CoA]", "values": [{"measurement": "effect on DME activity", "setting": "[1]", "result": "inhibited"}]}
{"molecule": "O=C(O)C[C@H](O)C(=O)O", "note": "[malate, L-malate]", "values": [{"measurement": "K0.5 from the empirical Hill equation", "setting": "[2]; EcMaeB, in the presence of acetyl-CoA, 0.5 mM NADP+, 300 nM enzyme", "result": "18.1 ± 3.20", "unit": "mM"}, {"measurement": "K0.5 from the empirical Hill equation", "setting": "[3]; in the presence of acetyl-CoA, 0.5 mM NADP+, 300 nM enzyme", "result": "7.44 ± 1.21", "unit": "mM"}]}
{"molecule": "CCCC(=O)SCCNC(=O)CCNC(=O)[C@H](O)C(C)(C)COP(=O)(O)OP(=O)(O)OC[C@H]1O[C@@H](n2cnc3c(N)ncnc32)[C@H](O)[C@@H]1OP(=O)(O)O", "note": "[butyryl-CoA]", "values": [{"measurement": "effect on DME activity", "setting": "[1]", "result": "inhibited"}]}
{"molecule": "[Mg+2]", "note": "[Mg^2+]", "values": [{"measurement": "effect of different Mg2+ concentrations on kinetic parameters", "setting": "[2]", "result": "no significant changes in kinetic parameters"}, {"measurement": "concentration at which EcMaeB activity is inhibited", "setting": "[4]", "result": "above 4 mM"}]}
{"molecule": "NADP^+", "values": [{"measurement": "change of Km for NADP+ with Mn2+ instead of Mg2+", "setting": "[2]; EcMaeB, 5 mM MnCl2", "result": "approximately doubled"}, {"measurement": "change of Km for NADP+ with Mn2+ instead of Mg2+", "setting": "[3]; 5 mM MnCl2", "result": "approximately doubled"}]}
{"molecule": "B1", "values": [{"measurement": "Km", "setting": "[5]", "result": "20.7 ± 8.83", "unit": "mM"}, {"measurement": "stoichiometry N", "setting": "[6]", "result": 6}]}
{"molecule": "B2", "values": [{"measurement": "Km", "setting": "[7]", "result": "6.22 ± 1.55", "unit": "mM"}]}
